Consider one molecule from patent publication US7807445B2, “Antibiotic compound” (Merck Sharp and Dohme de Espana, S.A., priority 2004, dated 2010).

Values after ≈ are worked out from the molar mass of the structure shown.

The nature of experiment [1]: Microbroth dilution assay (MIC), antibacterial activity. The format is cell-based. Conditions: range over all test strains (S. aureus, S. pneumoniae, E. faecalis, E. faecium, B. subtilis, E. coli and resistant strains); 35° C., read to no growth after 22-24 hours; NCCLS guidelines; read-out: minimum inhibitory concentration (MIC). Here is the method:
(§1) The protocols used to determine the antibacterial activity of Compound I are described below.
(§2) • Cation-Adjusted Mueller Hinton Broth (MH; BBL) • 50% Lysed Horse Blood (LHB; BBL) (stored frozen) • RPMI 1640 (BioWhittaker) • Human Serum (Pel-Freez) • RPMI 1640 (BioWhittaker) • Haemophilus Test Medium (HTM, Remel) • Trypticase Soy Broth (TSB, 5 mL/tube; BBL) • 0.9% Sodium Chloride (Saline; Baxter) • Trypticase Soy+5% Sheep Blood Agar Plates (TSA; BBL) • Sabouraud Dextrose Agar Plates (BBL) • Chocolate Agar Plates (BBL) • 2× Skim Milk (Remel) • Microbank Beads (Kramer Scientific) • MIC 2000 Microtiter plate inoculator. • 2× Trypticase Soy Broth (TSB, BBL)+15% glycerol/50% horse serum. • 96-Well Microtiter plates, lids, inoculum trays (Dynex Laboratories) • 8-Channel Finn Multichannel pipettor, 0.5-10 μL volume Methods: Media Preparation
(§3) Cation-Adjusted Mueller Hinton Broth (BBL): Prepared according to manufacturer's instructions (22 gms dissolved in 1000 mL water; autoclaved 22 minutes). Stored refrigerated. Filter-sterilized before use using a Corning 0.45 Tm cellulose acetate filter.
(§4) Cation-Adjusted Mueller Hinton+2.5% Lysed Horse Blood: Aseptically add 5 mL 50% lysed horse blood to 100 mL Cation-Adjusted Mueller Hinton Broth. Filter-sterilize before use using a Corning 0.45 Tm cellulose acetate filter. […]
On the technique in general: Dilution methods test growth across graded concentrations, often in twofold steps.

In experiment [2] the test system is various strains of S. aureus, S. pneumoniae, E. faecalis, E. faecium, B. subtilis and E. coli, including MRSA, VRE, multidrug-resistant E. faecium …. Described as above. Conditions: various strains of S. aureus, S. pneumoniae, E. faecalis, E. faecium, B. subtilis and E. coli, including MRSA, VRE, multidrug-, macrolide- and linezolid-resistant species. The format is cell-based. As for the experimental part: as §1, §2, §3, §4

As for `C=C1C[C@@]23C=CC(=O)[C@@](C)(CCC(=O)Nc4c(O)ccc(C(=O)O)c4O)C2C[C@@H]1CC3` (stereo in doubt) [Compound I], the MIC in experiment [1] was in the range of 0.5 to 32 µg/mL (≈ 1.18 to 75.2 µM). For the same molecule, the antibacterial activity result in experiment [2] is “demonstrates antibacterial activity”.
